Assay results: patent US20260138959A1, “QUINAZOLINE DERIVATIVE COMPOUND AND USE THEREOF” (VORONOI INC., priority 2021, published 2026)

Experiments:
human PDGFR-β(wt) = target: T1, human PDGFR-β(wt) (Homo sapiens, UniProt P09619); experiment: Enzyme inhibitory activity, ADP-Glo kinase assay, PDGFR-β(wt); type: biochemical; conditions: read-out: PDGFR-β (IC50 class)
T1 construct: purchased Signalchem P13-11G
Method: In order to evaluate the inhibitory activity of the compounds synthesized according to the above examples on PDGFR-α(wt), PDGFR-β(wt), c-KIT(wt), and c-KIT(D816V) kinases, the following method was performed. The compounds of examples were reacted with purified human PDGFR-α(wt) (Signalchem #P12-18G) enzyme, human PDGFR-β(wt) (Signalchem #P13-11G) enzyme, human c-KIT(wt) (Signalchem #K06-11BG) enzyme, human c-KIT(D816V) (Signalchem #C06-12LG) enzyme, and the enzyme inhibitory abilities were evaluated by the following method.
The reaction buffer was used as a composition of 40 mM Tris-HCl pH7.4, 20 mM MgCl2, 0.5 mg/ml BSA, 50 μM DTT, and the reactions of all the tests were carried out on the reaction buffer. The compound was diluted in 12 steps using a serial dilution method from a 10 mM DMSO stock, and the enzyme activity was measured at a final compound concentration of 10˜0.00005645 μM. During the test, the enzyme activity was confirmed using in vitro ADP-Glo™ kinase assay (Promega) after reacting with the proper concentration of human PDGFR-α(wt) enzyme, human PDGFR-β(wt), human c-KIT(wt) enzyme, and human c-KIT(D816V) enzyme with purified ATP and enzyme substrate at 25° C. for 1˜2 hours. At a ratio of 2:2:1, an enzyme-active reaction solution, an ADP-Glo reaction solution, and an enzyme-active detection solution were reacted to measure the inhibition of the enzyme's activity with luminoscence. Based on the […] of the enzyme activity of the solvent control that was not treated with the compound, the degree of enzyme activity inhibition was calculated according to the treatment concentration of each compound, and the concentration of each compound that inhibits 50% of enzyme activity was determined as IC50 (nM) value and the value was obtained by using GraphPad Prism 8.3.0 (GraphPad software Inc., San Diego) software. (A: IC50≤50 nM; B: 50 nM<IC50≤100 nM; C: 100 nM<IC50≤500 nM; D: IC50>500 nM).

Ba/F3-c-KIT(D816V) = experiment: Proliferation inhibitory activity on Ba/F3 cell (CellTiter-Glo, 72 hours), c-KIT(D816V); type: cell-based; conditions: Mus musculus, BaF3, read-out: Ba/F3 (nM) c-KIT (D816V) (GI50 class)
Procedure, shortened: (§1)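 Ba/F3 lines (TEL-PDGFRα WT, TEL-PDGFRβ WT, c-KIT D816V, V560G/D816V, D814Y) were seeded at 3×10^3 cells/well and exposed to 12-point, 3-fold dilutions (final 0.00005-10 μM) for 72 h at 37 °C. CellTiter-Glo signal was read after about 10 min mixing; GI50 (nM) was calculated relative to vehicle.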

c-KIT V560G/D816V = experiment: Proliferation inhibitory activity on Ba/F3 cell (CellTiter-Glo, 72 hours), c-KIT V560G/D816V; type: cell-based; conditions: Mus musculus, BaF3, c-KIT V560G/D816V cells, read-out: Cell (nM) c-KIT V560G/D816V (GI50 class)
Procedure, shortened: as §1

T1 sequence (P09619 33-1106): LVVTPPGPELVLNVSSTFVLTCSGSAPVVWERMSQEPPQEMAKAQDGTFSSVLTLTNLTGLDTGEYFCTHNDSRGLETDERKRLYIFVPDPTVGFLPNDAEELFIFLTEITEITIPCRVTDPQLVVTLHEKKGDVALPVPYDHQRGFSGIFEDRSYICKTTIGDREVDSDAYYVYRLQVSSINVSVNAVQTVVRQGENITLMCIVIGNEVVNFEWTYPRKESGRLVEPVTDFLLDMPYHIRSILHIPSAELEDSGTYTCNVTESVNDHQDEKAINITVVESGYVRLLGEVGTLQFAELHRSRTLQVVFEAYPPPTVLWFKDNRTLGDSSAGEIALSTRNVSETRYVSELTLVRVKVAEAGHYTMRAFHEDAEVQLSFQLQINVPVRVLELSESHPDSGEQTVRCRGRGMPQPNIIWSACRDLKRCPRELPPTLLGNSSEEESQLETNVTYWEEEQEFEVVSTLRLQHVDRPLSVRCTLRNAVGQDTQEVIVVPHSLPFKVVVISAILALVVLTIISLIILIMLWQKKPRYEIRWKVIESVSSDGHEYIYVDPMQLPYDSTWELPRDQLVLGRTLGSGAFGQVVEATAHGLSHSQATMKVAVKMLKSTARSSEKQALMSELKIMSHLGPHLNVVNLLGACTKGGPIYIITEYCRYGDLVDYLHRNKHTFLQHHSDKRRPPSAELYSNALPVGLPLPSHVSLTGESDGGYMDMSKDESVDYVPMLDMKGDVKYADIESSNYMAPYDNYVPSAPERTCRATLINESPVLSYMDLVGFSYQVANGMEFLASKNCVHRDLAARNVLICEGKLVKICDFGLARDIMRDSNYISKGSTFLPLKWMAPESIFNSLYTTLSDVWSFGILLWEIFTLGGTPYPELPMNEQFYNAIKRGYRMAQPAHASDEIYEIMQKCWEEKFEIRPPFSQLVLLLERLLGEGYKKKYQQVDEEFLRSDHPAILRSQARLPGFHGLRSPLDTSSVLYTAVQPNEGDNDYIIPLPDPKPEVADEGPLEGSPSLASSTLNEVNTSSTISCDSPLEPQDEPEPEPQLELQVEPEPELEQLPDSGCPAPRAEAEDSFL

Row | SMILES | IC50 (human PDGFR-β(wt)) [nM] | GI50 (Ba/F3-c-KIT(D816V)) [nM] | GI50 (c-KIT V560G/D816V) [nM]
1 | COc1cc2c(-c3ccc(NC(=O)Cc4ccc(C(F)(F)F)nc4)cc3)ncnc2cc1OCC1CCNCC1 [Example 59, N-(4-(6-methoxy-7-(piperidin-4-ylmethoxy)quinazolin-4-yl)phenyl)-2-(6-(trifluoromethyl)pyridin-3-yl)acetamide] | ≤ 50 | 200 to 500 | 
2 | COc1cc2c(-c3ccc(NC(=O)Cc4ccc(C(F)(F)F)cc4)cc3)ncnc2cc1OCCCN1C2CC1CN(C)C2 [Example 37, N-(4-(6-methoxy-7-(3-(3-methyl-3,6-diazabicyclo[3.1.1]heptane-6-yl)propoxy)quinazolin-4-yl)phenyl)-2-(4-(trifluoromethyl)phenyl)acetamide] | ≤ 50 | ≤ 200 | ≤ 200
3 | COc1cc2c(-c3ccc(NC(=O)Cc4ccc(Cl)c(C(F)(F)F)c4)cc3)ncnc2cc1OCCCN1CCN(C)CC1 [Example 82, 2-(4-chloro-3-(trifluoromethyl)phenyl)-N-(4-(6-methoxy-7-(3-(4-methylpiperazin-1-yl)propoxy)quinazolin-4-yl)phenyl)acetamide] | ≤ 50 | ≤ 200 | ≤ 200
4 | COc1cc2ncnc(-c3ccc(NC(=O)Cc4ccc(C(F)(F)F)cc4)cc3)c2cc1OCCCN1CC(CO)(CO)C1 [Example 150] | ≤ 50 | > 500 | 
5 | COc1ccc(CC(=O)Nc2ccc(-c3ncnc4cc(OCCCN5CCN(C)CC5)c(OC)cc34)cc2)cn1 [Example 81, N-(4-(6-methoxy-7-(3-(4-methylpiperazin-1-yl)propoxy)quinazolin-4-yl)phenyl)-2-(6-methoxypyridin-3-yl)acetamide] | ≤ 50 | ≤ 200 | ≤ 200
6 | COc1cc2ncnc(-c3ccc(NC(=O)Cc4ccc(C(F)(F)F)cc4)cc3)c2cc1OC1CCN(C(=O)OC(C)(C)C)CC1 [Example 137, tert-butyl 4-((7-methoxy-4-(4-(2-(4-(trifluoromethyl)phenyl)acetamido)phenyl)quinazolin-6-yl)oxy)piperidin-1-carboxylate] | ≤ 50 | 200 to 500 | 
7 | COc1cc2c(-c3ccc(NC(=O)Cc4ccc(C(F)(F)F)cc4)cc3)ncnc2cc1OCC1CCN(C)CC1 [Example 56, N-(4-(6-methoxy-7-((1-methylpiperidin-4-yl)methoxy)quinazolin-4-yl)phenyl)-2-(4-(trifluoromethyl)phenyl)acetamide] | ≤ 50 |  | ≤ 200
8 | COc1cc2ncnc(-c3ccc(NC(=O)Cc4ccc(C(F)(F)F)cc4)cc3)c2cc1OCCCN1CCOCC1 [Example 129, N-(4-(7-methoxy-6-(3-morpholinopropoxy)quinazolin-4-yl)phenyl)-2-(4-(trifluoromethyl)phenyl)acetamide] | ≤ 50 | ≤ 200 | 200 to 500
9 | CCN1CCC(COc2cc3ncnc(-c4ccc(NC(=O)Cc5ccc(C(F)(F)F)nc5)cc4)c3cc2OC)CC1 [Example 63, N-(4-(7-((1-ethylpiperidin-4-yl)methoxy)-6-methoxyquinazolin-4-yl)phenyl)-2-(6-(trifluoromethyl)pyridin-3-yl)acetamide] | ≤ 50 | ≤ 200 | ≤ 200
10 | CCN1CCC(COc2cc3ncnc(-c4ccc(NC(=O)Cc5cccc(C(F)(F)F)c5)cc4)c3cc2OC)CC1 [Example 64, N-(4-(7-((1-ethylpiperidin-4-yl)methoxy)-6-methoxyquinazolin-4-yl)phenyl)-2-(3-(trifluoromethyl)phenyl)acetamide] | ≤ 50 | ≤ 200 | ≤ 200
11 | COc1cc2ncnc(-c3ccc(NC(=O)Cc4ccc(C(F)(F)F)cc4)cc3)c2cc1OCC1CCCN(C(=O)OC(C)(C)C)C1 (centres unmarked) [Example 130, tert-butyl 3-(((7-methoxy-4-(4-(2-(4-(trifluoromethyl)phenyl)acetamido)phenyl)quinazolin-6-yl)oxy)methyl)piperidin-1-carboxylate] | ≤ 50 | 200 to 500 | 
12 | COc1cc2c(-c3ccc(NC(=O)Cc4ccc(C(F)(F)F)nc4)cc3)ncnc2cc1OCC1CCN(C)CC1 [Example 101, N-(4-(6-methoxy-7-((1-methylpiperidin-4-yl)methoxy)quinazolin-4-yl)phenyl)-2-(6-(trifluoromethyl)pyridin-3-yl)acetamide] | ≤ 50 |  | ≤ 200
13 | COCCN1CCC(COc2cc3ncnc(-c4ccc(NC(=O)Cc5ccc(C(F)(F)F)nc5)cc4)c3cc2OC)CC1 [Example 96, N-(4-(6-methoxy-7-((1-(2-methoxyethyl)piperidin-4-yl)methoxy)quinazolin-4-yl)phenyl)-2-(6-(trifluoromethyl)pyridin-3-yl)acetamide] | ≤ 50 |  | ≤ 200
14 | COc1cc2c(-c3ccc(NC(=O)Nc4ccc(Cl)c(C(F)(F)F)c4)cc3)ncnc2cc1OCCCN1CCN(C)CC1 [Example 168, 1-(4-chloro-3-(trifluoromethyl)phenyl)-3-(4-(6-methoxy-7-(3-(4-methylpiperazin-1-yl)propoxy)quinazolin-4-yl)phenyl)urea] | 50 to 100 |  | 
15 | CCN1CCC(COc2cc3ncnc(-c4ccc(NC(=O)Cc5ccc(Cl)nc5)cc4)c3cc2OC)CC1 [Example 70, 2-(6-chloropyridin-3-yl)-N-(4-(7-((1-ethylpiperidin-4-yl)methoxy)-6-methoxyquinazolin-4-yl)phenyl)acetamide] | ≤ 50 | ≤ 200 | ≤ 200
16 | COc1cc2c(-c3ccc(NC(=O)Cc4ccc(C(F)(F)F)cc4)cc3)ncnc2cc1OC[C@H]1CCCNC1 [Example 75, (S)-N-(4-(6-methoxy-7-(piperidin-3-ylmethoxy)quinazolin-4-yl)phenyl)-2-(4-(trifluoromethyl)phenyl)acetamide] | ≤ 50 | ≤ 200 | ≤ 200
17 | COc1cc2c(-c3ccc(NC(=O)Cc4ccc(C(F)(F)F)cc4)cc3)ncnc2cc1OCCCN1C[C@@H]2C[C@H]1CN2C [Example 32, N-(4-(6-methoxy-7-(3-((1S,4S)-5-methyl-2,5-diazabicyclo[2.2.1]heptane-2-yl)propoxy)quinazolin-4-yl)phenyl)-2-(4-(trifluoromethyl)phenyl)acetamide] | ≤ 50 | ≤ 200 | ≤ 200
18 | COc1cc2c(-c3ccc(NC(=O)Cc4ccc(Cl)nc4)cc3)ncnc2cc1OCC1CCNCC1 [Example 69, 2-(6-chloropyridin-3-yl)-N-(4-(6-methoxy-7-(piperidin-4-ylmethoxy)quinazolin-4-yl)phenyl)acetamide] | ≤ 50 | ≤ 200 | 
19 | CCN1CCC[C@H](COc2cc3ncnc(-c4ccc(NC(=O)Cc5ccc(C(F)(F)F)cc5)cc4)c3cc2OC)C1 [Example 76, (S)-N-(4-(7-((1-ethylpiperidin-3-yl)methoxy)-6-methoxyquinazolin-4-yl)phenyl)-2-(4-(trifluoromethyl)phenyl)acetamide] | ≤ 50 | ≤ 200 | ≤ 200
20 | CCN1CCC[C@@H](COc2cc3ncnc(-c4ccc(NC(=O)Cc5ccc(C(F)(F)F)cc5)cc4)c3cc2OC)C1 [Example 74, (R)-N-(4-(7-((1-ethylpiperidin-3-yl)methoxy)-6-methoxyquinazolin-4-yl)phenyl)-2-(4-(trifluoromethyl)phenyl)acetamide] | ≤ 50 | ≤ 200 | ≤ 200
